According to patent publication US12077503B2, “Substituted cyclic amides and their use as herbicides” (FMC CORPORATION, priority 2015, dated 2024):
Where two headings read alike, the source gives them in different places.

Columns and labels:
Type in all cases: in vivo
[1] = test system: barnyardgrass (Echinochloa crus-galli); test: Test A preemergence; conditions: Echinochloa crus-galli, pre-emergence, 240 h, read-out: Plant response rating, Barnyardgrass; for pest or weed control at 125 g/ha: 125 g ai/ha; for pest or weed control at 500 g/ha: 500 g ai/ha
Summary of the method: (§1)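 Seeds sprayed preemergence with a directed soil spray, or plants at 2 to 10 cm height and one- to two-leaf stage sprayed postemergence, with test chemicals in a non-phytotoxic solvent mixture containing surfactant, in loam soil–sand blend. Injury rated visually against untreated controls after about 10 d in greenhouse, 0 (no effect) to 100 (complete control).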

[2] = test system: ragweed (common ragweed, Ambrosia elatior); test: Test A preemergence; conditions: Ambrosia artemisiifolia, pre-emergence, 240 h, read-out: Plant response rating, Ragweed; for pest or weed control at 125 g/ha: 125 g ai/ha; for pest or weed control at 500 g/ha: 500 g ai/ha
Summary of the method: as §1

[3] = test system: pigweed (Amaranthus retroflexus); test: Test A preemergence; conditions: Amaranthus retroflexus, pre-emergence, 240 h, read-out: Plant response rating, Pigweed; for pest or weed control at 125 g/ha: 125 g ai/ha; for pest or weed control at 500 g/ha: 500 g ai/ha
Kochia (Kochia scoparia) [4] = test: Test A preemergence; conditions: Bassia scoparia, pre-emergence, 240 h, read-out: Plant response rating, Kochia; for pest or weed control at 125 g/ha: 125 g ai/ha; for pest or weed control at 500 g/ha: 500 g ai/ha
Summary of the method: as §1

[5] = test system: ryegrass, Italian (Italian ryegrass, Lolium multiflorum); test: Test A preemergence; conditions: Lolium multiflorum, pre-emergence, 240 h, read-out: Plant response rating, Ryegrass, Italian; for pest or weed control at 125 g/ha: 125 g ai/ha; for pest or weed control at 500 g/ha: 500 g ai/ha
Summary of the method: as §1

[6] = test system: giant foxtail (Setaria faberii); test: Test A preemergence; conditions: Setaria faberi, pre-emergence, 240 h, read-out: Plant response rating, Foxtail, Giant; for pest or weed control at 125 g/ha: 125 g ai/ha; for pest or weed control at 500 g/ha: 500 g ai/ha
Summary of the method: as §1

[7] = test system: Galium (catchweed bedstraw, Galium aparine); test: Test A postemergence; conditions: Galium, post-emergence, 240 h; for pest or weed control at 125 g/ha: 125 g ai/ha
Summary of the method: as §1

[8] = test system: pigweed (Amaranthus retroflexus); test: Test A postemergence; conditions: Amaranthus retroflexus, post-emergence, 240 h; for pest or weed control at 125 g/ha: 125 g ai/ha
Summary of the method: as §1

Kochia (Kochia scoparia) [9] = test: Test A postemergence; conditions: Bassia scoparia, post-emergence, 240 h; for pest or weed control at 125 g/ha: 125 g ai/ha
Summary of the method: as §1

corn (Zea mays) = test: Test A postemergence; conditions: Zea mays, post-emergence, 240 h
Summary of the method: as §1

[10] = test system: barnyardgrass (Echinochloa crus-galli); test: Test B flooded paddy test; conditions: Echinochloa crus-galli, Flood, 250 g ai/ha
Summary of the method: (§2)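 Plants at 2-leaf stage flooded to 3 cm above soil, with compounds applied directly to paddy water and that depth maintained. Plants kept in greenhouse 13–15 d. Visual rating versus controls on a 0 (no effect) to 100 (complete control) scale.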

rice (Oryra sativa) = test: Test B flooded paddy test; conditions: Oryza sativa, Flood, 250 g ai/ha
Summary of the method: as §2

[11] = test system: ducksalad (Heteranthera limosa); test: Test B flooded paddy test; conditions: Heteranthera limosa, Flood, 250 g ai/ha
Summary of the method: as §2

[12] = test system: sedge, umbrella (small-flower umbrella sedge, Cyperus difformis); test: Test B flooded paddy test; conditions: Cyperus difformis, Flood, 250 g ai/ha
Summary of the method: as §2

[13] = preemergence, visual rating after approx. 10 d, 0 to 100 scale where 0 is no effect and 100 is complete control
[14] = preemergence, 0 to 100 scale, 0 = no effect, 100 = complete control
[15] = preemergence, 0 to 100 scale (0 no effect, 100 complete control)
[16] = Preemergence, 0 to 100 scale (0 no effect, 100 complete control)

With CN1C[C@H](c2cccc(C(F)(F)F)c2)[C@@H](C(=O)Nc2ccccc2C2CC2)C1=O [Compound 749] the pest or weed control at 125 g/ha [1, 13] was 0%, the pest or weed control at 500 g/ha [1, 14] was 20% and the pest or weed control at 125 g/ha [2, 13] was 0%. The pest or weed control at 500 g/ha [2, 14] was 0%, the pest or weed control at 125 g/ha [3, 13] was 0% and the pest or weed control at 500 g/ha [3, 14] was 0%. The pest or weed control at 125 g/ha (Kochia (Kochia scoparia) [4]; [13]) was 0%, the pest or weed control at 500 g/ha (Kochia (Kochia scoparia) [4]; [14]) was 20% and the pest or weed control at 125 g/ha [5, 13] was 0%. The pest or weed control at 500 g/ha [5, 14] was 20%, the pest or weed control at 125 g/ha [6, 13] was 50% and the pest or weed control at 500 g/ha [6, 14] was 90%. The pest or weed control at 125 g/ha ([7]; postemergence, visual injury after approximately 10 d, 0 to 100 scale (0 no effect, 100 complete control), read-out: Plant response rating, Galium) was 0%, the pest or weed control at 125 g/ha ([8]; postemergence, visual injury after approximately 10 d, 0 to 100 scale (0 no effect, 100 complete control), read-out: Plant response rating, Pigweed) was 0% and the pest or weed control at 125 g/ha (Kochia (Kochia scoparia) [9]; postemergence, visual injury after approximately 10 d, 0 to 100 scale (0 no effect, 100 complete control), read-out: Plant response rating, Kochia) was 0%. For the same molecule, the Corn plant response rating (crop injury, 0 = no effect, 100 = complete kill) at 125 g/ha (corn (Zea mays); 125 g ai/ha, postemergence, visual injury after approximately 10 d, 0 to 100 scale (0 no effect, 100 complete control)) was 0%, the pest or weed control at 250 g/ha ([10]; scale of 0 to 100 where 0 is no effect and 100 is complete control, read-out: Barnyardgrass plant response rating) was 0% and the pest or weed control at 250 g/ha (rice (Oryra sativa); scale of 0 to 100 where 0 is no effect and 100 is complete control, read-out: Rice plant response rating) was 0%. It also gave a pest or weed control at 250 g/ha ([11]; scale of 0 to 100 where 0 is no effect and 100 is complete control, read-out: Ducksalad plant response rating) of 20% and a pest or weed control at 250 g/ha ([12]; scale of 0 to 100 where 0 is no effect and 100 is complete control, read-out: Sedge, Umbrella plant response rating) of 0%.
In the case of O=C1NC[C@H](c2cc(C(F)(F)F)ccn2)[C@H]1C(=O)Nc1cccc(F)c1F (racemic) [Compound 1376], the pest or weed control at 500 g/ha [1, 15] is reported as 100%, the pest or weed control at 125 g/ha [1, 16] is reported as 90% and the pest or weed control at 500 g/ha [2, 15] is reported as 0%. The pest or weed control at 125 g/ha [2, 16] was 0%, the pest or weed control at 500 g/ha [3, 15] was 0% and the pest or weed control at 125 g/ha [3, 16] was 0%. For the same molecule, the pest or weed control at 500 g/ha (Kochia (Kochia scoparia) [4]; [15]) was 0%, the pest or weed control at 125 g/ha (Kochia (Kochia scoparia) [4]; [16]) was 0% and the pest or weed control at 500 g/ha [5, 15] was 70%. The pest or weed control at 125 g/ha [5, 16] was 20%, the pest or weed control at 500 g/ha [6, 15] was 100% and the pest or weed control at 125 g/ha [6, 16] was 90%. For the same molecule, the pest or weed control at 125 g/ha ([7]; Postemergence, visual rating about 10 d after treatment, read-out: Galium plant response rating (0 to 100 scale)) was 0%, the pest or weed control at 500 g/ha ([7]; Postemergence, 500 g ai/ha, visual injury, 0 to 100 scale (0 no effect, 100 complete control), approx. 10 d, read-out: Plant response rating, Galium) was 30% and the pest or weed control at 125 g/ha ([8]; Postemergence, visual rating about 10 d after treatment, read-out: Pigweed plant response rating (0 to 100 scale)) was 0%. The pest or weed control at 500 g/ha ([8]; Postemergence, 500 g ai/ha, visual injury, 0 to 100 scale (0 no effect, 100 complete control), approx. 10 d, read-out: Plant response rating, Pigweed) was 20%, the pest or weed control at 125 g/ha (Kochia (Kochia scoparia) [9]; Postemergence, visual rating about 10 d after treatment, read-out: Kochia plant response rating (0 to 100 scale)) was 0% and the pest or weed control at 500 g/ha (Kochia (Kochia scoparia) [9]; Postemergence, 500 g ai/ha, visual injury, 0 to 100 scale (0 no effect, 100 complete control), approx. 10 d, read-out: Plant response rating, Kochia) was 20%. It also gave a plant injury at 125 g/ha (corn (Zea mays); 125 g ai/ha, Postemergence, visual rating about 10 d after treatment, read-out: Corn plant response rating (0 to 100 scale)) of 0%, a Corn plant response rating (crop injury, 0 = no effect, 100 = complete kill) at 500 g/ha (corn (Zea mays); Postemergence, 500 g ai/ha, visual injury, 0 to 100 scale (0 no effect, 100 complete control), approx. 10 d) of 30% and a pest or weed control at 250 g/ha ([10]; 360 h, visually evaluated after 13 to 15 d, read-out: Plant response rating, Barnyardgrass (0 to 100 scale where 0 is no effect and 100 is complete control)) of 40%. It also gave a pest or weed control at 250 g/ha (rice (Oryra sativa); 360 h, visually evaluated after 13 to 15 d, read-out: Plant response rating, Rice (0 to 100 scale where 0 is no effect and 100 is complete control)) of 0%, a pest or weed control at 250 g/ha ([11]; 360 h, visually evaluated after 13 to 15 d, read-out: Plant response rating, Ducksalad (0 to 100 scale where 0 is no effect and 100 is complete control)) of 70% and a pest or weed control at 250 g/ha ([12]; 360 h, visually evaluated after 13 to 15 d, read-out: Plant response rating, Sedge, Umbrella (0 to 100 scale where 0 is no effect and 100 is complete control)) of 0%.
